Data taken from PMC10901556, “Conservation of Affinity Rather Than Sequence Underlies a Dynamic Evolution of the Motif-Mediated p53/MDM2 Interaction in Ray-Finned Fishes” (Molecular Biology and Evolution, 2024).
Several values for one entry are separate records, joined by “and”; a condition that tells them apart may be missing. Equal values may be shown once. Read-outs that look alike come from different tables or passages of the source. Where no end group is shown, it is not given here.

Assays:
[1] = target: T1, MDM2D.rerio SWIB domain (Danio rerio, UniProt O42354); assay: Fluorescence polarization displacement assay; format: binding
T1 construct: NusA-TEV-His6-PreScission (N, cleaved yes); made in house; host or cells: Escherichia coli BL21 (DE3)
T1 sequence (O42354 with tags, fused parts or gaps): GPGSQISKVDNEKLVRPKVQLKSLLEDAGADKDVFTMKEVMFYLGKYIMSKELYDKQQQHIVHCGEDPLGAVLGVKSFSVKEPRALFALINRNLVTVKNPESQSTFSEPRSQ

[2] = target: T2, D. rerio MDM2 (Danio rerio, UniProt O42354); assay: Isothermal titration calorimetry; format: binding; conditions: 25 °C; for TΔS / ΔH / Kd: ITC
T2 construct: NusA-TEV-His6-PreScission site (N, cleaved yes); made in house; host or cells: Escherichia coli BL21 (DE3)
T2 sequence (O42354 with tags, fused parts or gaps): T1 sequence (O42354 with tags, fused parts or gaps)
Method: For ITC experiments, a MicroCal iTC200 instrument (GE Healthcare) was used, and the experiments were performed at 25 °C. The MDM2 protein and p53TAD peptides were dialyzed against the experimental buffer prior to experiments to avoid buffer mismatch. The concentration of D. rerio MDM2 in the cell was 11 μM and the concentration of p53TADD.rerio^17–32 and p53TADD.rerio^10–75 in the syringe was 118 and 116 μM, respectively. Results were analyzed using the built-in software and a 2-state binding model was assumed.

[3] = target: MDM2 SWIB domain, Maylandia zebra; assay: Fluorescence polarization displacement assay; format: binding; conditions: for IC50 / Ki: M.zeb MDM2 2000 nM
[4] = target: T1, MDM2D.rerio SWIB domain; conditions: ref Mihalič et al. 2023; cited from earlier work
Source text: Abstract The transcription factor and cell cycle regulator p53 is marked for degradation by the ubiquitin ligase MDM2. The interaction between these 2 proteins is mediated by a conserved binding motif in the disordered p53 transactivation domain (p53TAD) and the folded SWIB domain in MDM2. […] The interaction between the proteins is mediated by a conserved binding motif in the intrinsically disordered N-terminal transactivation domain (TAD) of p53 and a SWIB domain in MDM2 (Fig. 1). The interaction leads to MDM2-catalyzed ubiquitination and proteasomal degradation of p53. Phosphorylation of p53TAD increases affinity for the general transcriptional coactivators CBP/p300 a ...

[5] = target: human MDM2; conditions: ref Åberg et al. (2018); read-out: KD (μM) p53TAD^full-length native (converted); cited from earlier work
Source text: Therefore, we expressed, purified, and subjected a longer p53TAD construct from D. rerio to binding experiments (Fig. 4a).

[6] = target: MDM2 SWIB domain, Lepisosteus oculatus; assay: Fluorescence polarization displacement assay; format: binding
[7] = target: MDM2 SWIB domain, Channa argus; assay: Fluorescence polarization displacement assay; format: binding; conditions: for IC50 / Ki: C.arg MDM2 1500 nM
[8] = target: T3, MDM2H.sapiens SWIB domain (Homo sapiens, UniProt Q00987); assay: Fluorescence polarization displacement assay; format: binding
T3 construct: NusA-TEV-His6-PreScission (N, cleaved yes); made in house; host or cells: Escherichia coli BL21 (DE3)

[9] = labeled probe 15 nM, replicate 1, read-out: IC50 [M] (IT)
[10] = labeled probe 15 nM, replicate 3, read-out: IC50 [M] (IT)
[11] = average of the replicates, probe 15 nM, Kd for probe […], read-out: Ki [nM] Average
[12] = average of the replicates, probe 15 nM, Kd for probe […], read-out: Ki [µM] Average
[13] = calculated from IC50, Kd for probe […], probe 15 nM, replicate 1, read-out: Ki
[14] = calculated from IC50, Kd for probe […], probe 15 nM, replicate 2, read-out: Ki
[15] = calculated from IC50, Kd for probe […], probe 15 nM, replicate 3, read-out: Ki
[16] = mean of the replicates, probe 15 nM, read-out: IC50 [nM], mean of the replicates

MDM2 SWIB domain, Maylandia zebra, sequence (as listed by the source): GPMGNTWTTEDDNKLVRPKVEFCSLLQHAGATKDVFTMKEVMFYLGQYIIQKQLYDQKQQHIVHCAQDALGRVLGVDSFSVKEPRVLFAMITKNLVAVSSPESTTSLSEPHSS
MDM2 SWIB domain, Lepisosteus oculatus, sequence (as listed by the source): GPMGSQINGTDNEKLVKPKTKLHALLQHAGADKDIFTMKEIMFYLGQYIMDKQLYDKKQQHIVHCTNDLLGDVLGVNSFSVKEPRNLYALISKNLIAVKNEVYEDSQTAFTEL
MDM2 SWIB domain, Channa argus, sequence (as listed by the source): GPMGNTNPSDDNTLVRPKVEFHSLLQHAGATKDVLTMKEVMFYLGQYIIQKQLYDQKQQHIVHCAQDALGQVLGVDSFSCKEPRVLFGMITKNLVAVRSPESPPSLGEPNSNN
T3 sequence (Q00987 with tags, fused parts or gaps): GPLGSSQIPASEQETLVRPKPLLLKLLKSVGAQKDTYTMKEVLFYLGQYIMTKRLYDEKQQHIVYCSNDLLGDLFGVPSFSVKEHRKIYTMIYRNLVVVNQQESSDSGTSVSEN

## GSQNDSQEFAELWEKNLISIQPPGGGSCWDIINDEEYLPGSFDPN [D.rer p53 P2 longer]
[1]
  IC50: 1.64e-06 M

## Ac-EFAELWEKNLISIQP (N-terminus assumed) [D.rer p53 17-32 (G1K]
[2]; first replicate
  N (ITC stoichiometry): 0.74±0.01
  TΔS: 1.7 kcal/mol
  ΔH: -7.2 ± 0.1 kcal/mol
[2]; second replicate
  N (ITC stoichiometry): 0.76±0.01
  TΔS: 1.2 kcal/mol
  ΔH: -7.6 ± 0.1 kcal/mol

## GPMGMAEQGFEDLQLSQNLPFSQDSFKELWDQLPVAESLSVSLDTISAVNSSTTGHDETWRPDGTMDMFQLINDQQLAEHFDEKLFELPNDALPKDGVTPPAST [M.zeb p53 P1 full, expressed full-length zebra mbuna p53TAD paralog 1]
[3]; FP displacement of FITC-p53TADhuman^15–26 (15 nM) from MDM2 (2 μM), KD from IC50, 20 mM sodium phosphate pH 7.4, 150 mM NaCl, 1 mM TCEP
  Kd: 190 ± 20 nM
[3]; [9]
  IC50: 3.27e-06 M
[3]; labeled probe 15 nM, replicate 2, read-out: IC50 [M] (IT)
  IC50: 3.18e-06 M
[3]; [10]
  IC50: 2.72e-06 M
[3]; [11]
  Ki: 188 nM
[3]; [12]
  Ki: 190 nM
[3]; [13]
  Ki: 218 nM
[3]; [14]
  Ki: 206 nM
[3]; [15]
  Ki: 140 nM
[3]; [16]
  IC50: 3.06e-06 M

## p53TADD.rerio (residues 15 to 26): peptide corresponding to the conserved binding motif in p53TADD.rerio, earlier study (KNLIIQPPGGGS; UniProt P79734 15-26, looked up, fragment)
[4]
  affinity in binding assay: no affinity

## H.sap p53 full: expressed full-length human p53 transactivation domain
[5]
  Kd: 0.1 µM

## GPMGMADPEPEGLPLSQESFQELWNMVIVLHRAVPPENAQWPDLQSMLYTNELVPNAIDSLYEELEPHVSMPPQPMVSNPDGLAPSSST [L.ocu p53 full, expressed full-length spotted gar p53TAD]
[6]; FP displacement of FITC-p53TADhuman^15–26 (15 nM) from MDM2 (1 μM), KD from IC50, 20 mM sodium phosphate pH 7.4, 150 mM NaCl, 1 mM TCEP
  Kd: 85 ± 5 nM
[6]; equals the mean of the replicates, read-out: IC50 [nM], mean
  IC50: 2090 nM
[6]; mean of the replicates (n = 3 or 6), read-out: Ki [nM] Average
  Ki: 84.7 nM
[6]; mean of the replicates (n = 3 or 6), read-out: Ki [µM] Average
  Ki: 84.7 nM
[6]; replicate 1, MDM2 1000 nM, labeled probe 15 nM, read-out: IC50 [M] (IT)
  IC50: 2170 nM
[6]; replicate 1, calculated from IC50 with Kd for probe 78 nM, read-out: Ki
  Ki: 90.7 nM
[6]; replicate 2, MDM2 1000 nM, labeled probe 15 nM, read-out: IC50 [M] (IT)
  IC50: 2140 nM
[6]; replicate 2, calculated from IC50 with Kd for probe 78 nM, read-out: Ki
  Ki: 88.6 nM
[6]; replicate 3, MDM2 1000 nM, labeled probe 15 nM, read-out: IC50 [M] (IT)
  IC50: 1960 nM
[6]; replicate 3, calculated from IC50 with Kd for probe 78 nM, read-out: Ki
  Ki: 74.9 nM

## GPMGMMEEQGFESLPLSQDSFRELWESVVTPSISTIPPAPEVPQDTMYMMLMNDQVLADGFDEKLFELPPESSTKDGVVPPSST [C.arg p53 P1 full, expressed full-length northern snakehead p53TAD paralog 1]
[7]; [9]
  IC50: 1.82e-06 M
[7]; labeled probe 15 nM, replicate 2, read-out: IC50
  IC50: 1.47e-06 M
[7]; [10]
  IC50: 1.52e-06 M
[7]; FP displacement of FITC-p53TADhuman^15–26 (15 nM) from MDM2 (1.5 μM), KD from IC50, 20 mM sodium phosphate pH 7.4, 150 mM NaCl, 1 mM TCEP
  Kd: 100 ± 30 nM
[7]; [11]
  Ki: 98.6 nM
[7]; [12]
  Ki: 98.6 nM
[7]; [13]
  Ki: 153 nM
[7]; [14]
  Ki: 65.5 nM
[7]; [15]
  Ki: 77.8 nM
[7]; [16]
  IC50: 1.6e-06 M

## GPMGMAQNDSQEFAELWEKNLISIQPPGGGSCWDIINDEEYLPGSFDPNFFGNVLEEQPQPSTLPPTST* [D.rer p53 P2 full, expressed whole TAD region of D. rerio p53]
[2]; first replicate
  N (ITC stoichiometry): 0.79±0.01
  TΔS: 1.7 kcal/mol
  ΔH: -7.8 ± 0.1 kcal/mol
[2]; second replicate
  N (ITC stoichiometry): 0.74±0.01
  TΔS: 2.0 kcal/mol
  ΔH: -7.6 ± 0.1 kcal/mol
[2]; MDM2 11 μM in the cell, approximate value
  Kd: ~100 nM
[2]; one of two replicates, the first printed for this construct in Fig. S5 (replicate number not assignable)
  Kd: 100 ± 20 nM
[2]; one of two replicates, the second printed for this construct in Fig. S5 (replicate number not assignable)
  Kd: 100 ± 10 nM
[1]; FP displacement of FITC-p53TADhuman^15–26 (15 nM) from MDM2 (1 μM or 1.5 μM, both printed), KD from IC50, 20 mM sodium phosphate pH 7.4, 150 mM NaCl, 1 mM TCEP, read-out: KD
  Kd: 49 ± 8 nM
[1]; FP displacement, printed in nM (text, Fig. S4A), read-out: KD
  Kd: 49 nM
[1]; ratio of KD values, FP displacement
  fold higher affinity than p53TAD^15–27D.rerio: more than 70 fold
[1]; read-out: IC50 [M] (IT)
  IC50: 1.73e-06 M and 1.93e-06 M and 1.69e-06 M
[1]; read-out: IC50 [nM], mean of the replicates (cell without heading below the column)
  IC50: 1.78e-06 M
[1]; read-out: Ki
  Ki: 42.6 nM and 65.1 nM and 39.2 nM
[1]; read-out: Ki [nM] Average
  Ki: 49 nM
[1]; read-out: Ki [µM] Average
  Ki: 49 nM

## Ac-SQEFAELWEKNL [D.rer p53 P2 short]
[1]
  IC50: 3.39e-05 M
  Kd: 3600 ± 300 nM
[8]
  IC50: 31.8 µM
  Ki: 4.33 µM
